Test results as given in US6576600B1, “Detergent” (Tokuyama Corporation, priority 1999, dated 2003).

Experiment: Solubility / compatibility of the organic solvents in water at 60° C.
Format: physicochemical
Protocol: The above component (A) in the present invention is a polar organic solvent having low compatibility with water. The expression “low compatibility with water” means that only a small amount of the component dissolves in water, the solubility in water at 60° C., that is, the proportion of a portion soluble in water is preferably 50 vol % or less, more preferably 30 vol % or less. The expression “polar organic solvent” means an organic solvent having a relative dielectric constant of preferably 8 or more, more preferably 10 or more.
The organic solvents used in the examples and comparative examples are as follows.
With `CCCN1CCN(CCC)C1=O` [DPI, 1,3-dipropyl-2-imidazolidinone] the “solubility in water at 60° C.” value was 12 vol %. For `CCOCC(C)OCC(C)OCC` (centres unmarked) [DPDE, dipropylene glycol diethyl ether], the “solubility in water at 60° C.” value was 5 vol %. For `CCCCCCCCN1CCCC1=O` [NOP, N-octylpyrrolidone], the “solubility in water at 60° C.” value was 13 vol %. For `CCN1CCN(C)C1=O` [DEI, 1-ethyl-3-methyl-2-imidazolidinone], the “compatibility with water at 60° C.” value was “compatible with water at 60 °C in any ratio”. In the case of `CCCOC(C)COC(C)CO` (centres unmarked) [DPP, dipropylene glycol monopropyl ether], the “solubility in water at 60° C.” value is reported as 10 vol %. In the case of `CN1CCN(C)C1=O` [DMI, 1,3-dimethyl-2-imidazolidinone], the “compatibility with water at 60° C.” value is reported as “compatible with water at 60 °C in any ratio”. With `CCCCOCC(C)O` (centres unmarked) [PB, propylene glycol monobutyl ether] the “solubility in water at 60° C.” value was 6 vol %. For `COC(C)COC(C)CO` (centres unmarked) [DPM, dipropylene glycol monomethyl ether, reference compound], the “compatibility with water at 60° C.” value was “compatible with water at 60 °C in any ratio”.
